Data reported in patent US7022856B2, “Carboline derivatives” (LIlly Icos LLC., priority 2001, dated 2006).

Molecular target: T1, human recombinant PDE5 (Homo sapiens, UniProt O76074)
T1 construct: host or cells: Saccharomyces cerevisiae strain BJ2-54 (ATCC 74465)
Assay: cGMP-PDE inhibition, one-step assay with human recombinant PDE5
Assay type: biochemical
Settings: 0.15 μM 8-[H3]-cGMP, 30 min
Protocol: The compounds of structural formula (I) were tested for an ability to inhibit PDE5. The ability of a compound to inhibit PDE5 activity is related to the IC50 value for the compound, i.e., the concentration of inhibitor required for 50% inhibition of enzyme activity. The IC50 value for compounds pounds of structural formula (I) were determined using recombinant human PDE5.
Recombinant production of human PDE1B, PDE2, PDE4A, PDE4B, PDE4C, PDE4D, PDE5, and PDE7 was carried out similarly to that described in Example 7 of U.S. Pat. No. 5,702,936, incorporated herein by reference, except that the yeast transformation vector employed, which is derived from the basic ADH2 plasmid described in Price et al., Methods in Enzymology, 185, pp. 308–318 (1990), incorporated yeast ADH2 promoter and terminator sequences and the Saccharomyces cerevisiae host was the protease-deficient strain BJ2-54 deposited on Aug. 31, 1998 with the American Type Culture Collection, Manassas, Va., under accession number ATCC 74465. Transformed host cells were grown in 2×SC-leu medium, pH 6.2, with trace metals, and vitamins. After 24 hours, YEP medium-containing glycerol was added to a final concentration of 2×YET/3% glycerol. Approxiately 24 hr later, cells were harvested, washed, and stored at −70° C. […]
Cell pellets (29 g) were thawed on ice with an equal volume of Lysis Buffer (25 mM Tris HCl, pH 8, 5 mM MgCl2, 0.25 mM DTT, 1 mM benzamidine, and 10 μM ZnSO4). Cells were lysed in a Microfluidizer® (Microfluidics Corp.) using nitrogen at 20,000 psi. The lysate was centrifuged and filtered through 0.45 μm disposable filters. The filtrate was applied to a 150 mL column of Q SEPHAROSE® Fast-Flow (Pharmacia). The column was washed with 1.5 volumes of Buffer A (20 mM Bis-Tris Propane, pH 6.8, 1 mM MgCl2, 0.25 mM DTT, 10 μM ZnSO4) and eluted with a step gradient of 125 mM NaCl in Buffer A followed by a linear gradient of 125–1000 mM NaCl in Buffer A. Active fractions from the linear gradient were applied to a 180 mL hydroxyapatite column in Buffer B (20 mM Bis-Tris Propane (pH 6.8), 1 mM MgCl2, 0.25 mM DTT, 10 μM ZnSO4, and 250 mM KCl). After loading, the column was washed with 2 volumes of Buffer B and eluted with a linear gradient of 0–125 mM potassium phosphate in Buffer B. Active fractions were pooled, precipitated with 60% ammonium sulfate, and resuspended in Buffer C (20 mM Bis-Tris Propane, pH 6.8, 125 mM NaCl, 0.5 mM DTT, and 10 μM ZnSO4). The pool was applied to a 140 mL column of SEPHACRYL® S-300 HR and eluted with Buffer C. Active fractions were diluted to 50% glycerol and stored at −20° C.
cGMP-PDE activity of compounds of the present invention was measured using a one-step assay adapted from Wells et al., Biochim. Biophys. Acta, 384, 430 (1975). The reaction medium contained 50 mM Tris-HCl, pH 7.5, 5 mM magnesium acetate. 250 μg/ml 5′-Nucleotidase, 1 mM EGTA, and 0.15 μM 8-[H^3]-cGMP. Unless otherwise indicated, the enzyme used was a human recombinant PDE5 (ICOS Corp., Bothell, Wash.).
Compounds of the invention were dissolved in DMSO finally present at 2% in the assay.

Row | IC50 [nM] | SMILES
1 | 200 | CNc1ccc(C(=O)N2CCc3c([nH]c4ccccc34)C2c2ccc3c(c2)OCO3)cc1 (stereo not drawn) [Example 5, 1-(1-Benzo[1,3]dioxol-5-yl-1,3,4,9-tetrahydro-β-carbolin-2-yl)-1-(4-methylaminophenyl)methanone]
2 | 670 | CN(C)c1ccc(C(=O)N2CCc3c([nH]c4ccccc34)C2c2ccc3c(c2)OCO3)cc1 (stereo not drawn) [Example 6, 1-(1-Benzo[1,3]dioxol-5-yl-1,3,4,9-tetrahydro-β-carbolin-2-yl)-1-(4-dimethylaminophenyl)methanone]
3 | 550 | NC(=O)c1ccc(C(=O)N2CCc3c([nH]c4ccccc34)C2c2ccc3c(c2)OCO3)cc1 (stereo not drawn) [Example 7, 4-[1-(1-Benzo[1,3]dioxol-5-yl-1,3,4,9-tetrahydro-β-carbolin-2-yl)methanoyl]benzamide]
4 | 190 | O=C(C#Cc1ccccc1)N1CCc2c([nH]c3ccccc23)C1c1ccc2c(c1)OCO2 (stereo not drawn) [Example 8, 1-(1-Benzo[1,3]dioxol-5-yl-1,3,4,9-tetrahydro-β-carbolin-2-yl)-3-phenylpropynone]
5 | 440 | Nc1ccccc1CCC(=O)N1CCc2c([nH]c3ccccc23)C1c1ccc2c(c1)OCO2 (stereo not drawn) [Example 9, 3-(2-Aminophenyl)-1-(1-benzo[1,3]dioxol-5-yl-1,3,4,9-tetrahydro-β-carbolin-2-yl)propan-1-one]
6 | 760 | O=C(Cc1ccccc1)Nc1ccc(C(=O)N2CCc3c([nH]c4ccccc34)C2c2ccc3c(c2)OCO3)cc1 (stereo not drawn) [Example 10, N-{4-[1-(1-Benzo[1,3]dioxol-5-yl-1,3,4,9-tetrahydro-β-carbolin-2-yl)methanoyl]phenyl}-2-phenylacetamide]
7 | 440 | O=C(CCc1ccccc1)N1CCc2c([nH]c3ccccc23)C1c1ccc2c(c1)OCO2 (stereo not drawn) [Example 11, 1-(1-Benzo[1,3]dioxol-5-yl-1,3,4,9-tetrahydro-β-carbolin-2-yl)-3-phenylpropan-1-one]
8 | 480 | O=C(/C=C/c1cccc(CCC(=O)N2CCc3c([nH]c4ccccc34)C2c2ccc3c(c2)OCO3)c1)N1CCc2c([nH]c3ccccc23)C1c1ccc2c(c1)OCO2 (centres unmarked) [Example 13a]
9 | 20 | O=C(/C=C/c1ccc(CCC(=O)N2CCc3c([nH]c4ccccc34)C2c2ccc3c(c2)OCO3)cc1)N1CCc2c([nH]c3ccccc23)C1c1ccc2c(c1)OCO2 (centres unmarked) [Example 13b]
10 | 110 | O=C(c1ccc(-c2cccnc2)s1)N1CCc2c([nH]c3ccccc23)C1c1ccc2c(c1)OCO2 (centres unmarked) [Example 18]
11 | 250 | O=C(c1ccc(-c2ccccc2)s1)N1CCc2c([nH]c3ccccc23)C1c1ccc2c(c1)OCO2 (centres unmarked) [Example 19]
12 | 420 | COc1ccc(C2c3[nH]c4ccccc4c3CCN2C(=O)c2cc3ccccc3s2)cc1Cl (centres unmarked) [Example 20]
13 | 130 | O=C(c1cc2cc([N+](=O)[O-])ccc2s1)N1CCc2c([nH]c3ccccc23)C1c1ccc2c(c1)OCO2 (centres unmarked) [Example 21]
14 | 80 | Nc1ccc2sc(C(=O)N3CCc4c([nH]c5ccccc45)C3c3ccc4c(c3)OCO4)cc2c1 (centres unmarked) [Example 22]
15 | 360 | O=C(Cc1csc2ccccc12)N1CCc2c([nH]c3ccccc23)C1c1ccc2c(c1)OCO2 (stereo not drawn) [Example 23, 2-Benzo[b]thiophen-3-yl-1-(1-benzo[1,3]dioxol-5-yl-1,3,4,9-tetrahydro-β-carbolin-2-yl)ethanone]
16 | 30 | CC(=O)Nc1ccc2sc(C(=O)N3CCc4c([nH]c5ccccc45)C3c3ccc4c(c3)OCO4)cc2c1 (centres unmarked) [Example 24]
17 | 40 | O=C(CCl)Nc1ccc2sc(C(=O)N3CCc4c([nH]c5ccccc45)C3c3ccc4c(c3)OCO4)cc2c1 (centres unmarked) [Example 25]
18 | 900 | O=C(c1ccsc1)N1CCc2c([nH]c3ccccc23)C1c1ccc2c(c1)OCO2 (centres unmarked) [Example 26]
19 | 40 | O=C(CN1CCOCC1)Nc1ccc2sc(C(=O)N3CCc4c([nH]c5ccccc45)C3c3ccc4c(c3)OCO4)cc2c1 (centres unmarked) [Example 27]
20 | 120 | CN1CCN(CC(=O)Nc2ccc3sc(C(=O)N4CCc5c([nH]c6ccccc56)C4c4ccc5c(c4)OCO5)cc3c2)CC1 (centres unmarked) [Example 28]
21 | 300 | O=C(CN1CCCCC1)Nc1ccc2sc(C(=O)N3CCc4c([nH]c5ccccc45)C3c3ccc4c(c3)OCO4)cc2c1 (centres unmarked) [Example 29]
22 | 60 | COC(=O)CC(=O)Nc1ccc2sc(C(=O)N3CCc4c([nH]c5ccccc45)C3c3ccc4c(c3)OCO4)cc2c1 (centres unmarked) [Example 30]

Row | IC50 [nM] | SMILES
23 | 40 | O=C(Cn1ccnc1)Nc1ccc2sc(C(=O)N3CCc4c([nH]c5ccccc45)C3c3ccc4c(c3)OCO4)cc2c1 (centres unmarked) [Example 31]
24 | 480 | O=C(c1cc2cccc(Br)c2s1)N1CCc2c([nH]c3ccccc23)C1c1ccc2c(c1)OCO2 (centres unmarked) [Example 32]
25 | 200 | O=C(c1cc2c([N+](=O)[O-])cccc2s1)N1CCc2c([nH]c3ccccc23)C1c1ccc2c(c1)OCO2 (centres unmarked) [Example 33]
26 | 460 | O=C(c1ccc([N+](=O)[O-])s1)N1CCc2c([nH]c3ccccc23)C1c1ccc2c(c1)OCO2 (centres unmarked) [Example 34]
27 | 410 | O=C(c1cc2c(Br)cccc2s1)N1CCc2c([nH]c3ccccc23)C1c1ccc2c(c1)OCO2 (centres unmarked) [Example 35]
28 | 110 | CC(=O)c1ccc(C(=O)N2CCc3c([nH]c4ccccc34)C2c2ccc3c(c2)OCO3)s1 (centres unmarked) [Example 36]
29 | 40 | COc1ccc2cc(C(=O)N3CCc4c([nH]c5ccccc45)C3c3ccc4c(c3)OCO4)sc2c1 (centres unmarked) [Example 37]
30 | 30 | COc1ccc2sc(C(=O)N3CCc4c([nH]c5ccccc45)C3c3ccc4c(c3)OCO4)cc2c1 (centres unmarked) [Example 38]
31 | 400 | O=C(c1ccc(CN2CCOCC2)s1)N1CCc2c([nH]c3ccccc23)C1c1ccc2c(c1)OCO2 (centres unmarked) [Example 39]
32 | 320 | COCc1ccc(C(=O)N2CCc3c([nH]c4ccccc34)C2c2ccc3c(c2)OCO3)s1 (centres unmarked) [Example 40]
33 | 240 | CN(C)CC(=O)Nc1ccc(C(=O)N2CCc3c([nH]c4ccccc34)C2c2ccc3c(c2)OCO3)o1 (centres unmarked) [Example 41]
34 | 850 | CN(C)Cc1ccc(C(=O)N2CCc3c([nH]c4ccccc34)C2c2ccc3c(c2)OCO3)s1 (centres unmarked) [Example 42]
35 | 290 | CN(C)Cc1ccc2sc(C(=O)N3CCc4c([nH]c5ccccc45)C3c3ccc4c(c3)OCO4)cc2c1 (centres unmarked) [Example 43]
36 | 490 | Nc1ccc(C(=O)N2CCc3c([nH]c4ccccc34)C2c2ccc3c(c2)OCO3)s1 (centres unmarked) [Example 44]
37 | 5 | COc1cc2nc(N3CCc4c([nH]c5ccccc45)C3c3ccc4c(c3)OCO4)[nH]c(=O)c2cc1OC (stereo not drawn) [Example 46, 2-(1-Benzo[1,3]dioxol-5-yl-1,3,4,9-tetrahydro-β-carbolin-2-yl) -6,7-dimethoxy-3H-quinazolin-4-one]
38 | 27 | COc1cc2nc(N3CCc4c([nH]c5ccccc45)C3c3ccc4c(c3)OCO4)nc(Cl)c2cc1OC (stereo not drawn) [Example 47a, 1-Benzo[1,3]dioxol-5-yl-2-(4-chloro-6,7-dimethoxyquinazolin-2-yl)-2,3,4,9-tetrahydro-1H-β-carboline]
39 | 5 | COc1cc2cnc(N3CCc4c([nH]c5ccccc45)C3c3ccc4c(c3)OCO4)nc2cc1OC (stereo not drawn) [Example 47b, 1-Benzo[1,3]dioxol-5-yl-2-(6,7-dimethoxyquinazolin-2-yl)-2,3,4,9-tetrahydro-1H-β-carboline]
40 | 20 | O=C(O)CC(=O)Nc1ccc2sc(N3CCc4c([nH]c5ccccc45)C3c3ccc4c(c3)OCO4)cc2c1 (centres unmarked) [Example 48]
41 | 10 | COc1ccc(-c2ccnc(N3CCc4c([nH]c5ccccc45)C3c3ccc4c(c3)OCO4)n2)cc1 (centres unmarked) [Example 49]
42 | 780 | c1cnc(N2CCc3c([nH]c4ccccc34)C2c2ccc3c(c2)OCO3)nc1 (centres unmarked) [Example 50]
43 | 30 | c1ccc(-c2ccnc(N3CCc4c([nH]c5ccccc45)C3c3ccc4c(c3)OCO4)n2)cc1 (centres unmarked) [Example 51]
44 | 290 | c1ccc(-c2ccnc(N3CCc4c([nH]c5ccccc45)C3c3ccccc3)n2)cc1 (centres unmarked) [Example 52]
